Results as given in patent US10472347B2, “Aminopyrazine compounds with A2A antagonist properties” (Merck Sharp & Dohme Corp., priority 2014, dated 2019).

Target: T1, human A2a receptor (Homo sapiens, UniProt P29274)
T1 construct: purchased Perkin-Elmer RBHA2AM400UA; host or cells: HEK293 cells (membranes)
Experiment: A2a competition binding assay, Scintillation Proximity technology
Conditions: membranes from HEK293 cells expressing human A2a receptor; Ki by Cheng-Prusoff equation
Outline: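 SPA competition: 0.5 nM tritiated pyrazolotriazolopyrimidine ligand displaced by compound at 3000 to 0.15 nM, 1 h room temperature, human A2a HEK293 membranes pretreated with adenosine deaminase, PBS/10 mM MgCl2 buffer. CGS15943 1 μM defined non-specific binding; EC50 converted to Ki via Cheng-Prusoff.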

T1 sequence (P29274 whole entry): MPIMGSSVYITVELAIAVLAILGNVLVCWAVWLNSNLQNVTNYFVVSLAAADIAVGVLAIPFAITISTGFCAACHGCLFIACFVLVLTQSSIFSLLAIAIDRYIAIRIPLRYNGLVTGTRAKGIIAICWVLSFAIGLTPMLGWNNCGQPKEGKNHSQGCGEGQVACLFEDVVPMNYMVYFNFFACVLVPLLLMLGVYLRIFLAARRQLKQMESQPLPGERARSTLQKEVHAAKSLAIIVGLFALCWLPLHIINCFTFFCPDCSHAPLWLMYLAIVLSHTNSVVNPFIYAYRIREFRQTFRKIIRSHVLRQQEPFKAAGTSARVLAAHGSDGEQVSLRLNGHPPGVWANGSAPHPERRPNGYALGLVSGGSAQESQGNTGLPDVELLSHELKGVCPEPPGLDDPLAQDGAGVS

Row | SMILES | Ki
1 | Cc1nc(C(=O)NCc2nccnc2C(F)(F)F)c(N)nc1-c1ncco1 [Ex-215, 3-amino-6-methyl-5-(1,3-oxazol-2-yl)-N-{[3-(trifluoromethyl)pyrazin-2-yl]methyl}pyrazine-2-carboxamide] | 1.44 nM
2 | CCn1cc2cccc(CNC(=O)c3nc(C)c(-c4ncco4)nc3N)c2n1 [Ex-216, 3-amino-N-[(2-ethyl-2H-indazol-7-yl)methyl]-6-methyl-5-(1,3-oxazol-2-yl)pyrazine-2-carboxamide] | 0.123 nM
3 | Cc1nc(C(=O)NCc2cccc3c2ccn3CC(F)F)c(N)nc1-c1ncco1 [Ex-217, 3-amino-N-{[1-(2,2-difluoroethyl)-1H-indol-4-yl]methyl}-6-methyl-5-(1,3-oxazol-2-yl)pyrazine-2-carboxamide] | 1.4 nM
4 | Cc1nc(C(=O)NCc2cccc3c2ncn3C)c(N)nc1-c1ncco1 [Ex-218, 3-amino-6-methyl-N-[(1-methyl-1H-benzimidazol-4-yl)methyl]-5-(1,3-oxazol-2-yl)pyrazine-2-carboxamide] | 0.309 nM
5 | Cc1nc(C(=O)NCc2cccc3ncn(C)c23)c(N)nc1-c1ncco1 [Ex-219, 3-amino-6-methyl-N-[(1-methyl-1H-benzimidazol-7-yl)methyl]-5-(1,3-oxazol-2-yl)pyrazine-2-carboxamide] | 36.5 nM
6 | Cc1nc(C(=O)N[C@H]2CCc3cc(Cl)ccc32)c(N)nc1-c1ncco1 [Ex-222] | 9.22 nM
7 | Cc1nc(C(=O)NC2CC(O)c3cccnc32)c(N)nc1-c1ncco1 (stereo not shown) [Ex-223, 3-amino-N-(5-hydroxy-6,7-dihydro-5H-cyclopenta[b]pyridin-7-yl)-6-methyl-5-(1,3-oxazol-2-yl)pyrazine-2-carboxamide] | 2.98 nM
8 | Cc1nc(C(=O)NCc2ncccc2CF)c(N)nc1-c1ncco1 [Ex-224, 3-amino-N-{[3-(fluoromethyl)pyridin-2-yl]methyl}-6-methyl-5-(1,3-oxazol-2-yl)pyrazine-2-carboxamide] | 0.201 nM
9 | Cc1nc(C(=O)NCc2ncccc2CO)c(N)nc1-c1ncco1 [Ex-225, 3-amino-N-{[3-(hydroxymethyl)pyridin-2-yl]methyl}-6-methyl-5-(1,3-oxazol-2-yl)pyrazine-2-carboxamide] | 0.178 nM
10 | Cc1nc(C(=O)NCc2cccc3c2cnn3CC(F)F)c(N)nc1-c1ncco1 [Ex-228, 3-amino-N-{[1-(2,2-difluoroethyl)-1H-indazol-4-yl]methyl}-6-methyl-5-(1,3-oxazol-2-yl)pyrazine-2-carboxamide] | 1.74 nM
11 | Cc1nc(C(=O)NCc2cccc3c2ncn3CC2CC2)c(N)nc1-c1ncco1 [Ex-229, 3-amino-N-{[1-(cyclopropylmethyl)-1H-benzimidazol-4-yl]methyl}-6-methyl-5-(1,3-oxazol-2-yl)pyrazine-2-carboxamide] | 0.358 nM
12 | Cc1nc(C(=O)NC2Cc3ccccc3C2)c(N)nc1-c1ncco1 [Ex-235, 3-amino-N-(2,3-dihydro-1H-inden-2-yl)-6-methyl-5-(1,3-oxazol-2-yl)pyrazine-2-carboxamide] | 0.243 nM
13 | Cc1ccc(C(C)(C)O)nc1CNC(=O)c1nc(C)c(-c2ncco2)nc1N [Ex-236, 3-amino-N-{[6-(1-hydroxy-1-methylethyl)-3-methylpyridin-2-yl]methyl}-6-methyl-5-(1,3-oxazol-2-yl)pyrazine-2-carboxamide] | 1.61 nM
14 | COc1ccc(C(C)(C)O)nc1CNC(=O)c1nc(C)c(-c2ncco2)nc1N [Ex-237, 3-amino-N-{[6-(1-hydroxy-1-methylethyl)-3-methoxypyridin-2-yl]methyl}-6-methyl-5-(1,3-oxazol-2-yl)pyrazine-2-carboxamide] | 1.77 nM
15 | Cc1nc(C(=O)NC2CC(O)c3cccnc32)c(N)nc1-c1ncco1 (stereo not shown) [Ex-240A, 3-amino-N-(5-hydroxy-6,7-dihydro-5H-cyclopenta[b]pyridin-7-yl)-6-methyl-5-(1,3-oxazol-2-yl)pyrazine-2-carboxamide] | 40.5 nM
16 | Cc1nc(C(=O)NC2CC(O)c3cccnc32)c(N)nc1-c1ncco1 (stereo not shown) [Ex-240B, 3-amino-N-(5-hydroxy-6,7-dihydro-5H-cyclopenta[b]pyridin-7-yl)-6-methyl-5-(1,3-oxazol-2-yl)pyrazine-2-carboxamide] | 1.73 nM
17 | CCn1ncc2c(CNC(=O)c3nc(C)c(-c4ncco4)nc3N)cccc21 [Ex-242, 3-amino-N-[(1-ethyl-1H-indazol-4-yl)methyl]-6-methyl-5-(1,3-oxazol-2-yl)pyrazine-2-carboxamide] | 1.09 nM
18 | CCn1cc2c(CNC(=O)c3nc(C)c(-c4ncco4)nc3N)cccc2n1 [Ex-243, 3-amino-N-[(2-ethyl-2H-indazol-4-yl)methyl]-6-methyl-5-(1,3-oxazol-2-yl)pyrazine-2-carboxamide] | 15.1 nM
19 | Cc1nc(C(=O)NCc2ncccc2C(F)(F)F)c(N)nc1-c1cnco1 [Ex-249, 3-amino-6-methyl-5-(1,3-oxaol-5-yl)-N-{[3-(trifluoromethyl)-pyridin-2-yl]-methyl}pyrazine-2-carboxamide] | 3.45 nM
20 | Nc1nc(-c2cnco2)c(Cl)nc1C(=O)NCc1cccc2cccnc12 [Ex-250, 3-amino-6-chloro-5-(1,3-oxazol-5-yl)-N-(quinolin-8-ylmethyl)pyrazine-2-carboxamide] | 2.4 nM

Row | SMILES | Ki
21 | Cc1nc(C(=O)NCc2c(F)cccc2F)c(N)nc1-c1cnco1 [Ex-251, 3-amino-N-(2,6-difluorobenzyl)-6-methyl-5-(1,3-oxazol-5-yl)pyrazine-2-carboxamide] | 1.1 nM
22 | Cc1cccnc1CNC(=O)c1nc(C)c(-c2cnco2)nc1N [Ex-252, 3-amino-6-methyl-N-[(3-methylpyridin-2-yl)methyl]-5-(1,3-oxazol-5-yl)pyrazine-2-carboxamide] | 1.81 nM
23 | Cc1nc(C(=O)NCc2ccc(F)cc2F)c(N)nc1-c1cnco1 [Ex-253, 3-amino-N-(2,4-difluorobenzyl)-6-methyl-5-(1,3-oxazol-5-yl)pyrazine-2-carboxamide] | 8.57 nM
24 | COc1ccccc1CNC(=O)c1nc(C)c(-c2cnco2)nc1N [Ex-254, 3-amino-N-(2-methoxybenzyl)-6-methyl-5-(1,3-oxazol-5-yl)pyrazine-2-carboxamide] | 1.47 nM
25 | Cc1nc(C(=O)NCc2c(Cl)cccc2Cl)c(N)nc1-c1cnco1 [Ex-255, 3-amino-N-(2,6-dichlorobenzyl)-6-methyl-5-(1,3-oxazol-5-yl)pyrazine-2-carboxamide] | 0.2 nM
26 | Cc1cccc(Cl)c1CNC(=O)c1nc(C)c(-c2cnco2)nc1N [Ex-256, 3-amino-N-(2-chloro-6-methylbenzyl)-6-methyl-5-(1,3-oxazol-5-yl)pyrazine-2-carboxamide] | 0.196 nM
27 | Cc1nc(C(=O)NCc2ncccc2C(F)(F)F)c(N)nc1-c1cnco1 [Ex-257, 3-amino-6-methyl-5-(1,3-oxazol-5-yl)-N-{[3-(trifluoromethyl)pyridin-2-yl]methyl}pyrazine-2-carboxamide] | 1.94 nM
28 | Cc1cc(Cl)cc(Cl)c1CNC(=O)c1nc(C)c(-c2cnco2)nc1N [Ex-258, 3-amino-N-(2,4-dichloro-6-methylbenzyl)-6-methyl-5-(1,3-oxazol-5-yl)pyrazine-2-carboxamide] | 2.9 nM
29 | Cc1nc(C(=O)NC(C)(C)c2ccccn2)c(N)nc1-c1cnco1 [Ex-259, 3-amino-6-methyl-N-(1-methyl-1-pyridin-2-ylethyl)-5-(1,3-oxazol-5-yl)pyrazine-2-carboxamide] | 403 nM
30 | Cc1nc(C(=O)NC(C)(C)c2ccc(F)c(F)c2)c(N)nc1-c1cnco1 [Ex-260, 3-amino-N-[1-(3,4-difluorophenyl)-1-methylethyl]-6-methyl-5-(1,3-oxazol-5-yl)pyrazine-2-carboxamide] | 786 nM
31 | Cc1nc(C(=O)NC(C)(C)c2ccncc2)c(N)nc1-c1cnco1 [Ex-261, 3-amino-6-methyl-N-(1-methyl-1-pyridin-4-ylethyl)-5-(1,3-oxazol-5-yl)pyrazine-2-carboxamide] | 1420 nM
32 | Cc1nc(C(=O)NCC(C)(F)F)c(N)nc1-c1cnco1 [Ex-262, 3-amino-N-(2,2-difluoropropyl)-6-methyl-5-(1,3-oxazol-5-yl)pyrazine-2-carboxamide] | 340 nM
33 | Cc1cccc(CNC(=O)c2nc(C)c(-c3cnco3)nc2N)n1 [Ex-263, 3-amino-6-methyl-N-[(6-methylpyridin-2-yl)methyl]-5-(1,3-oxazol-5-yl)pyrazine-2-carboxamide] | 3.75 nM
34 | Nc1nc(-n2ccnn2)c(Cl)nc1C(=O)NCc1ccccc1C(F)(F)F [Ex-268, 3-amino-6-chloro-5-(1H-1,2,3-triazol-1-yl)-N-[2-(trifluoromethyl)benzyl] pyrazine-2-carboxamide] | 359 nM
35 | Nc1nc(-n2nccn2)c(Cl)nc1C(=O)NCc1ccccc1C(F)(F)F [Ex-269, 3-amino-6-chloro-5-(2H-1,2,3-triazol-2-yl)-N-[2-(trifluoromethyl)benzyl] pyrazine-2-carboxamide] | 4.3 nM
36 | Nc1nc(-n2ccnn2)c(Cl)nc1C(=O)NCc1ccc(F)cc1F [Ex-270, 3-amino-6-chloro-N-(2,4-difluorobenzyl)-5-(1H-1,2,3-triazol-1-yl)pyrazine-2-carboxamide] | 6470 nM
37 | Nc1nc(-n2nccn2)c(Cl)nc1C(=O)NCc1ccc(F)cc1F [Ex-271, 3-amino-6-chloro-N-(2,4-difluorobenzyl)-5-(2H-1,2,3-triazol-2-yl)pyrazine-2-carboxamide] | 6.19 nM
38 | Nc1nc(-n2ccnn2)c(Cl)nc1C(=O)NCc1cccc2cccnc12 [Ex-272, 3-amino-6-chloro-N-(quinolin-8-ylmethyl)-5-(1H-1,2,3-triazol-1-yl)pyrazine-2-carboxamide] | 269 nM
39 | Nc1nc(-n2nccn2)c(Cl)nc1C(=O)NCc1cccc2cccnc12 [Ex-273, 3-amino-6-chloro-N-(quinolin-8-ylmethyl)-5-(2H-1,2,3-triazol-2-yl)pyrazine-2-carboxamide] | 2.23 nM
40 | Cc1nc(C(=O)NCc2c(F)cccc2F)c(N)nc1-n1nccn1 [Ex-274, 3-amino-N-(2,6-difluorobenzyl)-6-methyl-5-(2H-1,2,3-triazol-2-yl)pyrazine-2-carboxamide] | 2 nM
